Assay results as given in the METLIN SMRT retention time set (Domingo-Almenara et al. 2019).

Test: gradient 5% acetonitrile 3 min, to 50% in 2 min, to 85% in 15 min, held 3 min, 100 µL/min
Details: column: Zorbax Extend-C18 2.1 x 50 mm; eluents: water / acetonitrile, 0.1% formic acid
How it was run: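 Mixtures of ~100 pure standards were chromatographed on a Zorbax Extend-C18 column (2.1 × 50 mm, 1.8 μm) at 100 μL/min using water and acetonitrile, each with 0.1% formic acid. Detection used a quadrupole time-of-flight mass spectrometer in positive and negative ionization mode, and data collection spanned 3 months. Retention time was obtained from adduct peaks picked computationally and each checked manually.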

| Structure (SMILES) | RP-LC retention time |
| --- | --- |
| Cc1cccc(CNC(=O)C2(C)Cn3cnc(C(=O)NC4CC4)c3C(=O)N2C2CC2)c1 (stereo not drawn) | 706 s |
| CSc1nnc(NC(=O)c2cc(Cl)ccc2Cl)s1 | 808 s |
| CC(C)N1C(=O)C(C)(C(=O)Nc2ccc(Cl)cc2)Oc2cccnc21 (stereo not drawn) | 903 s |
| COCCNC(=O)CS(=O)Cc1cnn(-c2ccccc2)c1-n1cccc1 (stereo not drawn) | 678 s |
| CC(C)CCNC(=O)C1CCN(c2cncnc2N2CCCCC2)CC1 | 674 s |
| Cc1ccc(Cl)cc1NC(=O)N1CCC(CC(=O)NCc2ccc(F)cc2)CC1 | 849 s |
| COc1cccc(N2CCN(c3ccnc(SCC(=O)Nc4ccc(F)cc4F)n3)CC2)c1 | 804 s |
| O=S(=O)(c1cc(F)cc(F)c1)N1CCN(Cc2cccc(F)c2)C2(CCOCC2)C1 | 958 s |
| CSc1ccc(-c2nc3ccccn3c2Nc2ccc(C)cc2)cc1 | 781 s |
| COc1ccccc1CNC(=O)C1CCCN(c2cnc3nccnc3c2)C1 (stereo not drawn) | 689 s |
| Cc1ccc2c(c1)N(Cc1nc(-c3ccc(F)cc3)no1)C(=O)CO2 | 1060 s |
| CCc1cc(-c2csc(S(=O)(=O)Nc3cc(C)cc(C)c3)c2)on1 | 1050 s |
| CCC(=O)N1c2ccc(S(=O)(=O)N3CCCCC3)cc2CC1C(=O)NC1CCCCCC1 (stereo not drawn) | 1010 s |
| COc1ccc(OC)c2sc(NC(=O)c3cccc(N4C(=O)CCC4=O)c3)nc12 | 716 s |
| COCCCNC(=O)C1COc2ccc(NC(=O)c3ccc(Br)cc3)cc2C1 (stereo not drawn) | 788 s |
| O=C(NCCN1CCOCC1)C1CCCN(c2ncnc3c2nc2n3CCCCC2)C1 (stereo not drawn) | 575 s |
| Cc1cccc(S(=O)(=O)N2Cc3ccccc3CC2C(=O)NCc2ccco2)c1 (stereo not drawn) | 1000 s |
| CCOC(=O)C1CCCN(c2cc(-n3nc(C)cc3C)ncn2)C1 (stereo not drawn) | 1040 s |
| CCOc1ccc(N2CC(c3nc(-c4ccc(OC)cc4)no3)CC2=O)cc1 (stereo not drawn) | 972 s |

| Structure (SMILES) | RP-LC retention time |
| --- | --- |
| COc1ccc(N2CC(c3noc(-c4ccc(OC(F)(F)F)cc4)n3)CC2=O)cc1 (stereo not drawn) | 1070 s |
| COc1ccc(N2CCN(c3cc(SCC(=O)Nc4ccc(C)cc4C)ncn3)CC2)cc1 | 1020 s |
| O=C1CC(c2cccc(Cl)c2)Cc2c1cnn2-c1nc2ccccc2[nH]1 (stereo not drawn) | 1030 s |
| Cc1nn(C)cc1S(=O)(=O)Nc1nc2ccc(S(C)(=O)=O)cc2s1 | 581 s |
| Cc1c(C(=O)C(=O)NCC2COc3ccccc3O2)c2ccccc2n1C (stereo not drawn) | 777 s |
| CCN(C(=O)Cc1c(C(=O)O)c(C)cn1CC)c1cc(C)ccc1C | 892 s |
| CCN(Cc1cn(CC)nc1C)C(=O)CC1=C2CCCCC2N(C)C1=O (stereo not drawn) | 648 s |
| O=C(Cn1ccc2ccccc21)NCc1n[nH]c(=O)c2ccccc12 | 657 s |
| O=C(NCc1ccc(Cl)cc1)C(=O)NCC1CCCO1 (stereo not drawn) | 762 s |
| CCCCOc1ccc(C(=O)Nc2ccc(F)cc2F)cc1 | 1130 s |
| O=C1[C@H]2CN(Cc3cccc(F)c3)C[C@H]2C(=O)N1Cc1ccc2c(c1)OCO2 | 800 s |
| Cc1ccsc1C(=O)NCCn1c(=O)n(Cc2ccccc2)c2cccnc21 | 806 s |
| Cc1ccccc1CN1CCN(c2ccccn2)CC1 | 566 s |
| COc1ccc(NC(=O)N2CC(c3nc(C(C)C)nn3C)C2)c(OC)c1 | 667 s |
| COCCCNC(=O)CN1C(=O)C2CCCCN2c2ccc(C(=O)N3CCCCC3)cc21 (stereo not drawn) | 729 s |
| CC1CCc2nc3ncn(CC(=O)Nc4cccc(Br)c4)c(=O)c3cc2C1 (stereo not drawn) | 854 s |
| Nc1ccc2c(c1)Cc1cc(Cl)c(Cl)cc1-2 | 963 s |
| O=C(Cc1cccc(F)c1)N1CCN(C(=O)c2cc(-c3cccnc3)n[nH]2)CC1 | 847 s |
| O=C(NCc1ccccc1F)c1cc2n(n1)CCCC2 | 794 s |
